Source: ChEMBL document CHEMBL5357000, “Synthesis and structure-activity relationships of aryl fluorosulfate-based inhibitors as novel antitubercular agents” (Bioorg Med Chem Lett, 2024)
Converted amounts (≈) assume the structure as drawn.

Legend:
[1] = Cytotoxicity against human HepG2 cells assessed as reduction in cell viability measured after 3 days by CellTiterGlo Luminescent assay; format: toxicity, cell-based; conditions: time 3 day
[2] = Cytotoxicity against human HEK293T cells assessed as reduction in cell viability measured after 3 days by CellTiterGlo Luminescent assay; format: toxicity, cell-based, HEK-293T; conditions: time 3 day
[3] = system: Mycobacterium tuberculosis; test: Antitubercular activity against Mycobacterium tuberculosis H37Rv assessed as inhibition of bacterial growth incubated for 7 days by Microdilution Alamar Blue assay; format: functional; conditions: 168 h, time 7 day
[4] = Plasma concentration in mouse at 20 mg/kg, po measured after 8 hrs; format: ADME, organism-based
[5] = Drug uptake in mouse lungs at 20 mg/kg, po measured after 8 hrs; format: ADME, organism-based; conditions: lung, read-out: Drug uptake

Structure (SMILES) | CC50 at 72 h [1] [µM] | CC50 at 72 h [2] [µM] | MIC [3] [µM] | concentration at 8 h [4] [ng/mL] | concentration at 8 h [5] [ng/mL]
O=S(=O)(F)Oc1ccc(OCc2c(F)cc(-n3cnnc3)cc2F)cc1 | > 40 | > 40 | 0.22 (≈ 0.0848 µg/mL) |  | 
CN(C)c1ncn(-c2cc(F)c(COc3ccc(OS(=O)(=O)F)cc3)c(F)c2)n1 | > 40 | > 40 | 0.31 (≈ 0.133 µg/mL) |  | 
CS(=O)(=O)Nc1ncn(-c2cc(F)c(COc3ccc(OS(=O)(=O)F)cc3)c(F)c2)n1 |  |  |  | 2120 | 1600
